According to US20230338337A1, “BIOMARKERS FOR CANCER THERAPY USING MDM2 ANTAGONISTS” (OTSUKA PHARMACEUTICAL CO., LTD., priority 2019, published 2023):
“Also recorded” adds a separate entry of the source.

Key:
[1] = system: 210 p53 wild-type cancer cell lines; assay: Cell line panel screen, CellTiter-Glo, 3 days; assay type: cell-based; settings: ANOVA, adjusted p-value<0.02
Method: Genomic features for these cell lines such as somatic mutations, copy number alterations and hypermethylation were obtained from the list of Cancer Functional Events as reported by Garnett et al (2016). ANOVA method was used to identify significant associations of genomics features to Compound 1 drug response.
Cancer cells were cultured in appropriate medium.
Each cell line was tested in triplicates.

[2] = system: 12 p53 wild-type, patient-derived mesothelioma cell lines; assay: 72-hour Alamar Blue proliferation assay, panel; assay type: cell-based; settings: Homo sapiens
Method: (§1) For all cell lines the number of viable cells was determined by measuring the conversion of Rezasurin (Alamar Blue) to Resorufin in response to mitochondrial activity of the viable cells. Alamar Blue™ (AbD Serotec/Bio-Rad, Hercules, CA, USA) was added to 10% of the well volume (20 μl/well) towards the end of the treatment period and incubated for a further 8-24 h. The plate was then read at 535 nm (excitation) and 590 nm (emission) on a SpectraMax Gemini reader (Molecular Devices, Sunnyvale, CA, USA). Each well was calculated as percentage of the mean DMSO control.

[3] = system: #12 mesothelioma cell line; assay: 72-hour Alamar Blue proliferation assay; assay type: cell-based; settings: Homo sapiens, read-out: Mean Compound 1 Proliferation IC50 (μM), cell line #12
Method: as §1

[4] = system: #19 mesothelioma cell line; assay: 72-hour Alamar Blue proliferation assay; assay type: cell-based; settings: Homo sapiens, read-out: Mean Compound 1 Proliferation IC50 (μM), cell line #19
Method: as §1

[5] = system: #2 mesothelioma cell line; assay: 72-hour Alamar Blue proliferation assay; assay type: cell-based; settings: Homo sapiens, read-out: Mean Compound 1 Proliferation IC50 (μM), cell line #2
Method: as §1

[6] = system: #24 mesothelioma cell line; assay: 72-hour Alamar Blue proliferation assay; assay type: cell-based; settings: Homo sapiens, read-out: Mean Compound 1 Proliferation IC50 (μM), cell line #24
Method: as §1

[7] = system: #35 mesothelioma cell line; assay: 72-hour Alamar Blue proliferation assay; assay type: cell-based; settings: Homo sapiens, read-out: Mean Compound 1 Proliferation IC50 (μM), cell line #35
Method: as §1

[8] = system: #40 mesothelioma cell line; assay: 72-hour Alamar Blue proliferation assay; assay type: cell-based; settings: Homo sapiens, read-out: Mean Compound 1 Proliferation IC50 (μM), cell line #40
Method: as §1

[9] = system: #52 mesothelioma cell line; assay: 72-hour Alamar Blue proliferation assay; assay type: cell-based; settings: Homo sapiens, read-out: Mean Compound 1 Proliferation IC50 (μM), cell line #52
Method: as §1

[10] = system: MESO-29T mesothelioma cell line; assay: 72-hour Alamar Blue proliferation assay; assay type: cell-based; settings: Homo sapiens, read-out: Mean Compound 1 Proliferation IC50 (μM), cell line MESO-29T
Method: as §1

[11] = system: MESO-50T mesothelioma cell line; assay: 72-hour Alamar Blue proliferation assay; assay type: cell-based; settings: Homo sapiens, read-out: Mean Compound 1 Proliferation IC50 (μM), cell line MESO-50T
Method: as §1

[12] = system: human patient-derived mesothelioma cell lines; assay: Induction of activated caspase-3, panel; assay type: cell-based; settings: all 12 cell lines
Method: (§2) In certain embodiments, the MDM2 antagonist induces apoptosis of the cancer cell. Apoptosis may typically be mediated via activated caspase-3. Induction of apoptosis can be determined by detecting cells that are positive for activated caspase-3 following 72-hour treatment with 1 μM of the MDM2 antagonist. […] In certain embodiments, at least 10%, at least 20% or at least 30% of cells staining positive for activated caspase-3 is an indicator of induced apoptosis. […] Active caspase-3 staining kits are commercially-available, for example the “Cleaved Caspase-3 Staining Kit (Red)” available from Abcam (Cambridge, UK) as catalogue number ab65617. The Invitrogen Cell Event dye (C10423) may also be used.
(§3) The extent of Compound 1-induced apoptosis is not predicted from the IC50 values obtained from the Alarmar Blue proliferation assays (Table 1), thus emphasising the impact of grouping cell lines specifically based on their apoptotic potential for subsequent bioinformatics analyses described in the following section.

[13] = system: #12 mesothelioma cell line; assay: Induction of activated caspase-3; assay type: cell-based, human; settings: 72-hour treatment with 1 μM Compound 1
Method: as §2, §3

[14] = system: #18 mesothelioma cell line; assay: Induction of activated caspase-3; assay type: cell-based, human; settings: 72-hour treatment with 1 μM Compound 1
Method: as §2, §3

[15] = system: #19 mesothelioma cell line; assay: Induction of activated caspase-3; assay type: cell-based, human; settings: 72-hour treatment with 1 μM Compound 1
Method: as §2, §3

[16] = system: #2 mesothelioma cell line; assay: Induction of activated caspase-3; assay type: cell-based, human; settings: 72-hour treatment with 1 μM Compound 1
Method: as §2, §3

[17] = system: #24 mesothelioma cell line; assay: Induction of activated caspase-3; assay type: cell-based, human; settings: 72-hour treatment with 1 μM Compound 1
Method: as §2, §3

[18] = system: #26 mesothelioma cell line; assay: Induction of activated caspase-3; assay type: cell-based, human; settings: 72-hour treatment with 1 μM Compound 1
Method: as §2, §3

[19] = system: #35 mesothelioma cell line; assay: Induction of activated caspase-3; assay type: cell-based, human; settings: 72-hour treatment with 1 μM Compound 1
Method: as §2, §3

[20] = system: #40 mesothelioma cell line; assay: Induction of activated caspase-3; assay type: cell-based, human; settings: 72-hour treatment with 1 μM Compound 1
Method: as §2, §3

[21] = system: #52 mesothelioma cell line; assay: Induction of activated caspase-3; assay type: cell-based, human; settings: 72-hour treatment with 1 μM Compound 1
Method: as §2, §3

[22] = system: MESO-29T mesothelioma cell line; assay: Induction of activated caspase-3; assay type: cell-based, human; settings: 72-hour treatment with 1 μM Compound 1
Method: as §2, §3

[23] = system: MESO-50T mesothelioma cell line; assay: Induction of activated caspase-3; assay type: cell-based, human; settings: 72-hour treatment with 1 μM Compound 1
Method: as §2, §3

[24] = system: MESO-7T mesothelioma cell line; assay: Induction of activated caspase-3; assay type: cell-based, human; settings: 72-hour treatment with 1 μM Compound 1
Method: as §2, §3

[25] = system: Caki-1 renal cancer cell line with BAP1 knock-down; assay: CAKI1 shBAP1 apoptotic assay (Annexin V); assay type: cell-based, human; settings: 72 hours with 1 uM Compound 1; BAP1 loss versus control
From the text: 3 independent shRNAs targeting BAP1 were used and BAP1 knock-down levels achieved with 2 independent shRNAs.

[26] = system: primary mesothelioma cell line Meso #24 with BAP1 knockdown; assay: Apoptosis after BAP1 shRNA knockdown; assay type: cell-based, human; settings: BAP1 knockdown versus control
From the text: BAP1 shRNA was used on primary mesothelioma cell line Meso #24 to achieves table BAP1 knockdown.

OCI-AML3 cells = assay: Induction of apoptosis by cleaved caspase-3 cytometry; assay type: cell-based; settings: 0.1 μM COMPOUND 1 alone, 72 h

IC50 ([2]; in 7 of the 12 cell lines): < 100 nM | IC50 ([2]; in 11 cell lines): < 400 nM | IC50 [3]: 0.078 µM | IC50 [4]: 0.17 µM | IC50 [5]: 0.062 µM | IC50 [6]: 0.094 µM | IC50 [7]: 0.045 µM | IC50 [8]: 0.0092 µM | IC50 [9]: 0.076 µM | IC50 [10]: > 10 µM | IC50 [11]: 0.067 µM
Structure (SMILES): CC[C@@](O)(c1cc(F)c2c(c1)C(=O)N([C@H](c1ccc(Cl)cc1)[C@H](C)C(=O)O)[C@@]2(OC)c1ccc(Cl)cc1)C1CCOCC1 [Compound 1, (2S,3S)-3-(4-chlorophenyl)-3-[(1R)-1-(4-chlorophenyl)-7-fluoro-5-[(1S)-1-hydroxy-1-(oxan-4-yl)propyl]-1-methoxy-3-oxo-2,3-dihydro-1H-isoindol-2-yl]-2-methylpropanoic acid]
sensitivity of cell lines with CDKN2A loss versus wild-type CDKN2A [1]: enhanced sensitivity | activated caspase-3 induction [12]: increase in activated caspase-3 was observed in all cell lines | cells staining positive for activated caspase-3 [13]: > 40% | apoptosis (cells positive for activated caspase-3) [14]: < 40% | cells staining positive for activated caspase-3 [15]: > 40% | cells staining positive for activated caspase-3 [16]: > 40% | apoptosis (cells positive for activated caspase-3) [17]: < 40% | apoptosis (cells positive for activated caspase-3) [18]: < 40% | apoptosis (cells positive for activated caspase-3) [19]: < 40% | cells staining positive for activated caspase-3 [20]: > 40% | cells staining positive for activated caspase-3 [21]: > 40% | apoptosis (cells positive for activated caspase-3) [22]: < 40% | apoptosis (cells positive for activated caspase-3) [23]: < 40% | cells staining positive for activated caspase-3 [24]: > 40% | % of cells undergoing apoptosis (Annexin V) [25]: increased apoptosis | apoptosis after Compound 1 treatment [26]: increased apoptosis | level of apoptosis (cleaved caspase-3) (OCI-AML3 cells): did not induce a high level of apoptosis; also recorded: does not induce substantial levels of cell death by apoptosis
